Measurements taken from patent publication US10485235B2, “Aryloxypyrimidinyl ethers as herbicides” (FMC Corporation, priority 2015, dated 2019).

Columns and labels:
Assay type in all cases: in vivo
[1] = test system: ryegrass, Italian (Italian ryegrass, Lolium multiflorum); experiment: Test A postemergence, Italian ryegrass; details: postemergence, 0 to 100 scale, 0 is no effect, 100 is complete control, approximately 10 days
Summary of the method: (§1)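 Plants grown in pots of loam blended with sand were treated either before emergence, via directed soil spray, or after emergence at the one- to two-leaf stage. Following about 10 days in the greenhouse, each treatment was visually compared with untreated controls and rated from 0 (no effect) to 100 (complete control).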

[2] = test system: galium (catchweed bedstraw, Galium aparine); experiment: Test A postemergence, galium; details: postemergence, 0 to 100 scale, 0 is no effect, 100 is complete control, approximately 10 days
Summary of the method: as §1

[3] = test system: barnyardgrass (Echinochloa crus-galli); experiment: Test B flooded paddy test, barnyardgrass; details: 250 g ai/ha, Flood; visual rating after 13 to 15 days; scale 0 to 100, 0 is no effect, 100 is complete control
Summary of the method: (§2)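 Seedlings at the 2-leaf stage are flooded to 3 cm and treated via the paddy water. Greenhouse plants are compared with controls after 13 to 15 days and given a 0 (no effect) to 100 (complete control) rating.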

[4] = test system: ryegrass, Italian (Italian ryegrass, Lolium multiflorum); experiment: Test A preemergence, Italian ryegrass; details: Preemergence, 0 to 100 scale (0 no effect, 100 complete control)
Summary of the method: as §1

[5] = test system: pigweed (Amaranthus retroflexus); experiment: Test A postemergence, pigweed; details: postemergence, 0 to 100 scale, 0 is no effect, 100 is complete control, approximately 10 days
Summary of the method: as §1

[6] = test system: ragweed (common ragweed, Ambrosia elatior); experiment: Test A postemergence, ragweed; details: postemergence, 0 to 100 scale, 0 is no effect, 100 is complete control, approximately 10 days
Summary of the method: as §1

[7] = test system: wheat (Triticum aestivum); experiment: Test A postemergence, wheat; details: postemergence, 0 to 100 scale, 0 is no effect, 100 is complete control, approximately 10 days
Summary of the method: as §1

[8] = test system: ducksalad (Heteranthera limosa); experiment: Test B flooded paddy test, ducksalad; details: 250 g ai/ha, Flood; visual rating after 13 to 15 days; scale 0 to 100, 0 is no effect, 100 is complete control
Summary of the method: as §2

[9] = test system: blackgrass (Alopecurus myosuroides); experiment: Test A postemergence, blackgrass; details: postemergence, 0 to 100 scale, 0 is no effect, 100 is complete control, approximately 10 days
Summary of the method: as §1

[10] = test system: foxtail, giant (giant foxtail, Setaria faberii); experiment: Test A preemergence, giant foxtail; details: Preemergence, 0 to 100 scale (0 no effect, 100 complete control)
Summary of the method: as §1

[11] = test system: ragweed (common ragweed, Ambrosia elatior); experiment: Test A preemergence, ragweed; details: Preemergence, 0 to 100 scale (0 no effect, 100 complete control)
Summary of the method: as §1

[12] = test system: pigweed (Amaranthus retroflexus); experiment: Test A preemergence, pigweed; details: Preemergence, 0 to 100 scale (0 no effect, 100 complete control)
Summary of the method: as §1

[13] = test system: barnyardgrass (Echinochloa crus-galli); experiment: Test A preemergence, barnyardgrass; details: Preemergence, 0 to 100 scale (0 no effect, 100 complete control)
Summary of the method: as §1

corn (Zea mays) = experiment: Test A postemergence, corn; details: postemergence, 0 to 100 scale, 0 is no effect, 100 is complete control, approximately 10 days
Summary of the method: as §1

kochia (Kochia scoparia) [14] = experiment: Test A postemergence, kochia; details: postemergence, 0 to 100 scale, 0 is no effect, 100 is complete control, approximately 10 days
Summary of the method: as §1

[15] = test system: barnyardgrass (Echinochloa crus-galli); experiment: Test A postemergence, barnyardgrass; details: postemergence, 0 to 100 scale, 0 is no effect, 100 is complete control, approximately 10 days
Summary of the method: as §1

rice (Oryza sativa) = experiment: Test B flooded paddy test, rice; details: 250 g ai/ha, Flood; visual rating after 13 to 15 days; scale 0 to 100, 0 is no effect, 100 is complete control
Summary of the method: as §2

kochia (Kochia scoparia) [16] = experiment: Test A preemergence, kochia; details: Preemergence, 0 to 100 scale (0 no effect, 100 complete control)
Summary of the method: as §1

[17] = test system: foxtail, giant (giant foxtail, Setaria faberii); experiment: Test A postemergence, giant foxtail; details: postemergence, 0 to 100 scale, 0 is no effect, 100 is complete control, approximately 10 days
Summary of the method: as §1

[18] = test system: sedge, umbrella (small-flower umbrella sedge, Cyperus difformis); experiment: Test B flooded paddy test, umbrella sedge; details: 250 g ai/ha, Flood; visual rating after 13 to 15 days; scale 0 to 100, 0 is no effect, 100 is complete control
Summary of the method: as §2

SMILES	Plant response rating, Ryegrass, Italian ([1]; 31 g ai/ha)	Plant response rating, Ryegrass, Italian ([1]; 125 g ai/ha)	Plant response rating, Galium ([2]; 31 g ai/ha)	Plant response rating, Galium ([2]; 125 g ai/ha)	Plant response rating, Barnyardgrass [3]	Plant response rating, Ryegrass, Italian ([4]; 31 g ai/ha)	Plant response rating, Ryegrass, Italian ([4]; 125 g ai/ha)	Plant response rating, Pigweed ([5]; 31 g ai/ha)	Plant response rating, Pigweed ([5]; 125 g ai/ha)	Plant response rating, Ragweed ([6]; 31 g ai/ha)	Plant response rating, Ragweed ([6]; 125 g ai/ha)	Plant response rating, Wheat ([7]; 31 g ai/ha)	Plant response rating, Wheat ([7]; 125 g ai/ha)	Plant response rating, Ducksalad [8]	Plant response rating, Blackgrass ([9]; 31 g ai/ha)	Plant response rating, Blackgrass ([9]; 125 g ai/ha)	Plant response rating, Foxtail, Giant ([10]; 31 g ai/ha)	Plant response rating, Foxtail, Giant ([10]; 125 g ai/ha)	Plant response rating, Ragweed ([11]; 31 g ai/ha)	Plant response rating, Ragweed ([11]; 125 g ai/ha)	further results
Cc1cccc(Oc2ncc(Cl)cn2)c1OCCCC(F)(F)F [Compound 55]	0	20	0	20	40	0	10	10	30	0	0	0	0	100	0	20	10	80	0	0	Plant response rating, Pigweed ([12]; 31 g ai/ha): 0; Plant response rating, Pigweed ([12]; 125 g ai/ha): 50; Plant response rating, Barnyardgrass ([13]; 31 g ai/ha): 10; Plant response rating, Barnyardgrass ([13]; 125 g ai/ha): 70; Plant response rating, Corn (corn (Zea mays); 31 g ai/ha): 0; Plant response rating, Corn (corn (Zea mays); 125 g ai/ha): 20; Plant response rating, Kochia (kochia (Kochia scoparia) [14]; 31 g ai/ha): 10; Plant response rating, Kochia (kochia (Kochia scoparia) [14]; 125 g ai/ha): 20; Plant response rating, Barnyardgrass ([15]; 31 g ai/ha): 10; Plant response rating, Barnyardgrass ([15]; 125 g ai/ha): 20; Plant response rating, Rice (rice (Oryza sativa)): 45; Plant response rating, Kochia (kochia (Kochia scoparia) [16]; 31 g ai/ha): 0; Plant response rating, Kochia (kochia (Kochia scoparia) [16]; 125 g ai/ha): 60; Plant response rating, Foxtail, Giant ([17]; 31 g ai/ha): 20; Plant response rating, Foxtail, Giant ([17]; 125 g ai/ha): 60; Plant response rating, Sedge, Umbrella [18]: 95
O=C(CCC(F)(F)F)COc1c(Br)cccc1Oc1ncc(Cl)cn1 [Compound 56]	0	10	10	40	0	0	0	40	100	0	0	0	20	85	0	20	0	90	0	0	Plant response rating, Pigweed ([12]; 31 g ai/ha): 0; Plant response rating, Pigweed ([12]; 125 g ai/ha): 80; Plant response rating, Barnyardgrass ([13]; 31 g ai/ha): 0; Plant response rating, Barnyardgrass ([13]; 125 g ai/ha): 90; Plant response rating, Corn (corn (Zea mays); 31 g ai/ha): 10; Plant response rating, Corn (corn (Zea mays); 125 g ai/ha): 30; Plant response rating, Kochia (kochia (Kochia scoparia) [14]; 31 g ai/ha): 0; Plant response rating, Kochia (kochia (Kochia scoparia) [14]; 125 g ai/ha): 60; Plant response rating, Barnyardgrass ([15]; 31 g ai/ha): 0; Plant response rating, Barnyardgrass ([15]; 125 g ai/ha): 20; Plant response rating, Rice (rice (Oryza sativa)): 30; Plant response rating, Kochia (kochia (Kochia scoparia) [16]; 31 g ai/ha): 0; Plant response rating, Kochia (kochia (Kochia scoparia) [16]; 125 g ai/ha): 50; Plant response rating, Foxtail, Giant ([17]; 31 g ai/ha): 0; Plant response rating, Foxtail, Giant ([17]; 125 g ai/ha): 30; Plant response rating, Sedge, Umbrella [18]: 75
